Experimental data reported in US20250109127A1, “METHODS OF USE OF PHENOXYPROPYLAMINE COMPOUNDS TO TREAT DEPRESSION” (Minerva Neurosciences, Inc., priority 2013, published 2025).
Where “and” joins values, the source holds several entries; their conditions need not be identical. Equal entries are not always repeated. Structures can show the parent of a compound that is named as a salt.

Tested on: norepinephrin release in the rat prefrontal cortex
Test: Microdialysis: norepinephrine release in prefrontal cortex after I.P. administration
Type: in vivo
Conditions: for Norepinephrin release, MEAN / Norepinephrin release, individual animals: 3 mg/kg IP; for Norepinephrin release, MEAN: n = 8; for Norepinephrin release, individual animals: per animal R#15,16,21,22,27,28,09,10; for Norepinephrin release, individual animals / NOREPINEPHRIN in dialysate, individual animals: hydrochloride; for NOREPINEPHRIN in dialysate, individual animals: 0.1 mg/kg
Method: The aim of the study was to evaluate, using microdialysis, the effects of an intraperitoneal (I.P.) administration in rats of three different doses of SON-117 on dopamine and its metabolites, serotonin and its metabolite (5-HIAA), and norepinephrine levels in prefrontal cortex.
Thirty-two adult male Wistar rats were used for the whole study (4 groups of eight animals planned for the study, Table 1).
Surgery was performed on rats weighing about 300 g at the beginning of the experiments. Rats were anaesthetized with Ketamine (50 mg/kg) & Xylazine (15 mg/kg) by intramuscular administration. The animals were placed in a stereotaxic apparatus in the flat-skull position at a constant setting of −3.3 mm between ear bars and the incisor bar. The animals were treated with a local anesthesic (xylocaine 1%, Astra Zeneca) and an analgesic (Temgesic, from Schering Plough, 0.05 mg/kg, s.c.). A rostrocaudal midline incision was made with a lancet to expose the dorsal skull surface. The “stereotaxic zero” was defined by the Bregma in accordance with Paxinos and Watson's atlas (1986). A hole was drilled in the skull with a drill and the meninges were pierced with a sterile needle to implant a CMA12 guide cannula which later received the dialysis probe.
Coordinates used for implanting guide cannula in prefrontal cortex from Bregma were anteroposterior 3.7 mm, mediolateral 0.8 mm, and dorsoventral −2 mm (top of the probe was at −5 mm). The guide cannula was fixed to the skull with two stainless steel screws (1.88 mm outside diameter) anchored. An application of dental cement was added. A plastic collar allowed each animal to be tethered to a Swivel assembly of the CMA 120 awake animal system. Following surgery, rats were kept in individual cages and allowed to recover for a minimum of 3-5 days before the experimentation. The rats were handled and put in plastic bowl for 10 min at least every day to habituate the animals to their new environment for the dialysis. An I.P. administration with saline was also performed every day.
Dialysis probes (CMA12/3 mm, membrane, 20 kD cut-off, Carnegie Medicine, Stockholm, Sweden), were carefully washed before inserting into the guide cannula. The wash was performed with the artificial cerebrospinal fluid (aCSF) medium (NaCl 147 mM, KCl 2.7 mM, CaCl2 1.2 mM, MgCl2 0.85 mM) at room temperature. The dialysis system was then equilibrated at 20° C. at a perfusion rate of 1 μl/min with a Carnegie pump (CMA100). All catheters (FEP tubing, internal volume of 1.2 μl/10 cm, and tubing adaptors) used for microdialysis were treated in the same conditions.
The probes duly prepared were inserted into the guide cannula and the CMA120 Swivel assembly secured to the animal using a plastic collar. Flow through the dialysis probe with aCSF was maintained at a rate of 1 μl/min during the whole experimentation. The first four fractions (corresponding to 2 hours) were discarded to avoid the effects of parenchymal disturbance and to ensure that an approximate steady-state level was reached. Fractions were then collected over a period of 8.5 h during which time the animals remained quiet. The dialysates were automatically collected with an autosampler (microfraction collector CMA 140, Carnegie Medicin) and stored at −80° C. until analysis. […] Perfusion was then maintained for 7 hours with aCSF. The dialysates (30 μl) were collected into 300 μl vials, transferred into dry ice and then kept frozen (−80° C.) until analysis. Frozen samples were shipped to a partner for analysis. At the end of the microdialysis study, a PBS with colored ink was perfused through the probe in order to visualize the dialyzed area.
Catecholamine assay: Concentrations of dopamine, DOPAC, HVA, 5-HIAA, 5-HT, and norepinephrin were determined for each sample by HPLC coupled with electrochemical detection. […]

[1] = SON-117 0.1 mg/kg I.P., T0-T30 min
[2] = SON-117 0.1 mg/kg I.P., T30-T1 h

In the case of `Cc1nnc(-c2cc3c(OC[C@@H](O)CN4CCC(c5ccc(Cl)c(Cl)c5)CC4)cccc3o2)o1` [SON-117, (S)-1-(4-(3,4-dichlorophenyl)piperidino)-3-(2-(5-methyl-1,3,4-oxadiazol-2-yl)benzo(b)furan-4-yloxy)-2-propanol hydrochloride], the “Norepinephrin release, MEAN” value (T3 h 30-T4 h) is reported as 96.91 % of respective basal, the “Norepinephrin release, individual animals” value (T3 h 30-T4 h) is reported as 92.25 % of respective basal and 96.09 % of respective basal and 81.54 % of respective basal and 98.50 % of respective basal and 84.78 % of respective basal and 103.12 % of respective basal and 98.12 % of respective basal and 120.87 % of respective basal and the “Norepinephrin release, MEAN” value (T3 h-T3 h 30) is reported as 98.58 % of respective basal. For the same molecule, the “Norepinephrin release, individual animals” value (T3 h-T3 h 30) was 105.14 % of respective basal and 113.23 % of respective basal and 79.41 % of respective basal and 94.38 % of respective basal and 76.17 % of respective basal and 100.68 % of respective basal and 93.69 % of respective basal and 125.93 % of respective basal, the “Norepinephrin release, MEAN” value (T4 h 30-T5 h) was 97.28 % of respective basal and the “Norepinephrin release, individual animals” value (T4 h 30-T5 h) was 58.60 % of respective basal and 125.43 % of respective basal and 101.68 % of respective basal and 87.38 % of respective basal and 80.27 % of respective basal and 104.69 % of respective basal and 112.63 % of respective basal and 107.59 % of respective basal. The “Norepinephrin release, MEAN” value (T4 h-T4 h 30) was 95.48 % of respective basal, the “Norepinephrin release, individual animals” value (T4 h-T4 h 30) was 62.13 % of respective basal and 91.42 % of respective basal and 88.64 % of respective basal and 99.58 % of respective basal and 82.26 % of respective basal and 99.52 % of respective basal and 111.02 % of respective basal and 129.30 % of respective basal and the “Norepinephrin release, MEAN” value (T5 h 30-T6 h) was 96.42 % of respective basal. For the same molecule, the “Norepinephrin release, individual animals” value (T5 h 30-T6 h) was 82.50 % of respective basal and 100.18 % of respective basal and 65.95 % of respective basal and 85.98 % of respective basal and 75.91 % of respective basal and 86.97 % of respective basal and 139.22 % of respective basal and 134.66 % of respective basal, the “Norepinephrin release, MEAN” value (T5 h-T5 h 30) was 90.72 % of respective basal and the “Norepinephrin release, individual animals” value (T5 h-T5 h 30) was 87.73 % of respective basal and 105.81 % of respective basal and 60.65 % of respective basal and 89.96 % of respective basal and 73.79 % of respective basal and 96.43 % of respective basal and 137.91 % of respective basal and 93.51 % of respective basal. For the same molecule, the “Norepinephrin release, MEAN” value (T6 h 30-T7 h) was 97.32 % of respective basal, the “Norepinephrin release, individual animals” value (T6 h 30-T7 h) was 66.13 % of respective basal and 133.14 % of respective basal and 93.99 % of respective basal and 95.87 % of respective basal and 77.85 % of respective basal and the “Norepinephrin release, MEAN” value (T6 h-T6 h 30) was 98.56 % of respective basal. The “Norepinephrin release, individual animals” value (T6 h-T6 h 30) was 78.64 % of respective basal and 120.89 % of respective basal and 90.25 % of respective basal and 94.88 % of respective basal and 80.09 % of respective basal and 93.58 % of respective basal and 131.29 % of respective basal, the “Norepinephrin release, MEAN” value (T-30 min-T0 (before administration)) was 97.42 % of respective basal and the “Norepinephrin release, MEAN” value (T-1 h 30-T-1 h (before administration)) was 102.02 % of respective basal. The “Norepinephrin release, MEAN” value (T-1 h-T-30 min (before administration)) was 100.56 % of respective basal, the “NE post injection levels vs mean pre-injection value” (SON-117 0.1 mg/kg I.P.) was “no statistically significant differences” and the “NOREPINEPHRIN in dialysate, MEAN” value [1] was 82.85 % of respective basal. For the same molecule, the “NOREPINEPHRIN in dialysate, individual animals” value [1] was 92.79 % of respective basal and 99.624 % of respective basal and 74.34 % of respective basal and 64.40 % of respective basal and 84.29 % of respective basal and 81.69 % of respective basal, the “NOREPINEPHRIN in dialysate, MEAN” value [2] was 95.58 % of respective basal and the “NOREPINEPHRIN in dialysate, individual animals” value [2] was 105.21 % of respective basal and 96.78 % of respective basal and 87.94 % of respective basal and 101.10 % of respective basal and 90.37 % of respective basal and 88.40 % of respective basal and 114.24 % of respective basal and 80.61 % of respective basal. The “NOREPINEPHRIN in dialysate, MEAN” value (SON-117 0.1 mg/kg I.P., T1 h 30-T2 h) was 81.28 % of respective basal.
